From ChEMBL document CHEMBL1201862, “PubChem BioAssay data set” (2004)
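Method: 48-hour compound exposure of cells in 96-well plates, five concentrations, linear interpolation of endpoints. Here, GI50 denotes the concentration required for 50% inhibition of growth.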 Calls of active or inactive are those of the source. Cut-off read from the data, not from the text of the source: active = GI50 up to about 1.1 µM and inactive = higher.

Tests used:
Assay in all cases: inhibition of tumour cell growth, NCI panel, 48 h
SNB-75 = test system: SNB-75
OVCAR-4 = test system: OVCAR-4
MOLT-4 = test system: MOLT-4
M19-MEL = test system: M19-MEL
HCC 2998 = test system: HCC 2998
HT-29 = test system: HT-29
HOP-62 = test system: HOP-62
SN12C = test system: SN12C
UACC-62 = test system: UACC-62
LOX IMVI = test system: LOX IMVI
U-251 = test system: U-251
NCI-H460 = test system: NCI-H460
HOP-92 = test system: HOP-92
HL-60 = test system: HL-60
SF-268 = test system: SF-268
SW-620 = test system: SW-620
OVCAR-5 = test system: OVCAR-5
HCT-116 = test system: HCT-116
A498 = test system: A498
HCT-15 = test system: HCT-15
KM-20L2 = test system: KM-20L2
NCI/ADR-RES = test system: NCI/ADR-RES
SK-OV-3 = test system: SK-OV-3
MCF7 = test system: MCF7
Malme-3M = test system: Malme-3M
HOP-18 = test system: HOP-18
DLD-1 = test system: DLD-1
SF-539 = test system: SF-539
SF-295 = test system: SF-295
RXF 393 = test system: RXF 393
SK-MEL-2 = test system: SK-MEL-2
NCI-H23 = test system: NCI-H23
NCI-H226 = test system: NCI-H226
XF498 = test system: XF498
SK-MEL-28 = test system: SK-MEL-28
K562 = test system: K562
UACC-257 = test system: UACC-257
DMS-273 = test system: DMS-273
A549 = test system: A549
CCRF-CEM = test system: CCRF-CEM
NCI-H522 = test system: NCI-H522
RPMI-8226 = test system: RPMI-8226
OVCAR-3 = test system: OVCAR-3
EKVX = test system: EKVX
SNB-78 = test system: SNB-78
UO-31 = test system: UO-31
CAKI-1 = test system: CAKI-1
SK-MEL-5 = test system: SK-MEL-5
DMS-114 = test system: DMS-114
KM12 = test system: KM12
IGROV-1 = test system: IGROV-1
SNB-19 = test system: SNB-19
OVCAR-8 = test system: OVCAR-8
786-0 = test system: 786-0
ACHN = test system: ACHN
LXFL 529 = test system: LXFL 529
COLO 205 = test system: COLO 205
SR = test system: SR
M14 = test system: M14
TK-10 = test system: TK-10

CC(=O)OCC1OC(n2cc(F)c(=O)[nH]c2=O)C(NC(=O)OCc2ccccc2)C(OC(C)=O)C1OC(C)=O (stereo not drawn)
GI50 (SNB-75): > 100 µM (inactive) | GI50 (OVCAR-4): > 100 µM (inactive) | GI50 (MOLT-4): > 100 µM (inactive) | GI50 (M19-MEL): > 100 µM (inactive) | GI50 (HCC 2998): > 100 µM (inactive) | GI50 (HT-29): > 100 µM (inactive) | GI50 (HOP-62): > 100 µM (inactive) | GI50 (SN12C): > 100 µM (inactive) | GI50 (UACC-62): > 100 µM (inactive) | GI50 (LOX IMVI): > 100 µM (inactive) | GI50 (U-251): > 100 µM (inactive) | GI50 (NCI-H460): > 100 µM (inactive) | GI50 (HOP-92): > 100 µM (inactive) | GI50 (HL-60): > 100 µM (inactive) | GI50 (SF-268): > 100 µM (inactive) | GI50 (SW-620): > 100 µM (inactive) | GI50 (OVCAR-5): > 100 µM (inactive) | GI50 (HCT-116): > 100 µM (inactive) | GI50 (A498): > 100 µM (inactive) | GI50 (HCT-15): > 100 µM | GI50 (KM-20L2): > 100 µM (inactive) | GI50 (NCI/ADR-RES): > 100 µM (inactive) | GI50 (SK-OV-3): > 100 µM (inactive) | GI50 (MCF7): > 100 µM (inactive) | GI50 (Malme-3M): > 100 µM (inactive) | GI50 (HOP-18): > 100 µM (inactive) | GI50 (DLD-1): > 100 µM (inactive) | GI50 (SF-539): > 100 µM (inactive) | GI50 (SF-295): > 100 µM (inactive) | GI50 (RXF 393): > 100 µM (inactive) | GI50 (SK-MEL-2): > 100 µM (inactive) | GI50 (NCI-H23): > 100 µM (inactive) | GI50 (NCI-H226): > 100 µM (inactive) | GI50 (XF498): > 100 µM (inactive) | GI50 (SK-MEL-28): > 100 µM (inactive) | GI50 (K562): > 100 µM (inactive) | GI50 (UACC-257): > 100 µM (inactive) | GI50 (DMS-273): > 100 µM (inactive) | GI50 (A549): > 100 µM (inactive) | GI50 (CCRF-CEM): > 100 µM (inactive) | GI50 (NCI-H522): > 95.3 µM (inactive) | GI50 (RPMI-8226): > 100 µM (inactive) | GI50 (OVCAR-3): > 100 µM (inactive) | GI50 (EKVX): > 100 µM (inactive) | GI50 (SNB-78): > 100 µM (inactive) | GI50 (UO-31): > 100 µM (inactive) | GI50 (CAKI-1): > 100 µM (inactive) | GI50 (SK-MEL-5): > 100 µM (inactive) | GI50 (DMS-114): > 100 µM (inactive) | GI50 (KM12): > 100 µM (inactive) | GI50 (IGROV-1): > 100 µM (inactive) | GI50 (SNB-19): > 100 µM (inactive) | GI50 (OVCAR-8): > 100 µM (inactive)

CC(C)C(=O)/C=C/c1ccccc1
GI50 (SNB-75): > 100 µM (inactive) | GI50 (OVCAR-4): > 100 µM (inactive) | GI50 (MOLT-4): 54.3 µM (inactive) | GI50 (M19-MEL): > 100 µM (inactive) | GI50 (HCC 2998): > 100 µM (inactive) | GI50 (HT-29): 53.5 µM (inactive) | GI50 (SN12C): 79.3 µM (inactive) | GI50 (UACC-62): 87.3 µM (inactive) | GI50 (786-0): 46.5 µM (inactive) | GI50 (LOX IMVI): 83.6 µM (inactive) | GI50 (U-251): 61.2 µM (inactive) | GI50 (NCI-H460): 50.6 µM (inactive) | GI50 (HOP-92): > 100 µM (inactive) | GI50 (HL-60): 42.3 µM (inactive) | GI50 (SF-268): > 100 µM (inactive) | GI50 (ACHN): 81.5 µM (inactive) | GI50 (SW-620): 72.1 µM (inactive) | GI50 (OVCAR-5): > 100 µM (inactive) | GI50 (HCT-116): 67.3 µM (inactive) | GI50 (A498): > 100 µM (inactive) | GI50 (KM-20L2): 36.1 µM (inactive) | GI50 (SK-OV-3): > 100 µM (inactive) | GI50 (LXFL 529): > 100 µM (inactive) | GI50 (HOP-18): > 100 µM (inactive) | GI50 (DLD-1): 84.7 µM (inactive) | GI50 (COLO 205): > 100 µM (inactive) | GI50 (SF-539): > 100 µM (inactive) | GI50 (SF-295): 91.2 µM (inactive) | GI50 (RXF 393): > 100 µM (inactive) | GI50 (SK-MEL-2): > 100 µM (inactive) | GI50 (SR): 31.2 µM (inactive) | GI50 (NCI-H23): 63.8 µM (inactive) | GI50 (XF498): > 100 µM (inactive) | GI50 (SK-MEL-28): > 100 µM (inactive) | GI50 (K562): 33.7 µM (inactive) | GI50 (UACC-257): 94.8 µM (inactive) | GI50 (M14): > 100 µM (inactive) | GI50 (DMS-273): 65.2 µM (inactive) | GI50 (A549): > 100 µM (inactive) | GI50 (CCRF-CEM): 23.9 µM (inactive) | GI50 (NCI-H522): 31 µM (inactive) | GI50 (RPMI-8226): 37.1 µM (inactive) | GI50 (OVCAR-3): 31 µM (inactive) | GI50 (SNB-78): 33.1 µM (inactive) | GI50 (UO-31): > 100 µM (inactive) | GI50 (SK-MEL-5): 67.3 µM (inactive) | GI50 (KM12): 69.7 µM (inactive) | GI50 (IGROV-1): > 100 µM (inactive) | GI50 (SNB-19): > 100 µM (inactive)

CCOC(=O)C1=C(OC(OCC)C([Se]c2ccccc2)C(C)C)CCC1 (stereo not drawn)
GI50 (SNB-75): 23 µM (inactive) | GI50 (OVCAR-4): 16.1 µM (inactive) | GI50 (MOLT-4): 14.7 µM (inactive) | GI50 (M19-MEL): 15.3 µM (inactive) | GI50 (TK-10): 47 µM (inactive) | GI50 (HCC 2998): 36.8 µM (inactive) | GI50 (HT-29): 19.1 µM (inactive) | GI50 (HOP-62): 68.7 µM (inactive) | GI50 (SN12C): 10.4 µM (inactive) | GI50 (UACC-62): 14.2 µM (inactive) | GI50 (786-0): 6.82 µM (inactive) | GI50 (LOX IMVI): 2.31 µM (inactive) | GI50 (U-251): 4.29 µM (inactive) | GI50 (NCI-H460): 16.9 µM (inactive) | GI50 (HOP-92): 27.5 µM (inactive) | GI50 (HL-60): 3.24 µM (inactive) | GI50 (SF-268): 4.73 µM (inactive) | GI50 (ACHN): 23.4 µM (inactive) | GI50 (OVCAR-5): 22.3 µM (inactive) | GI50 (HCT-116): 12.5 µM (inactive) | GI50 (A498): 26.5 µM (inactive) | GI50 (HCT-15): 15.2 µM | GI50 (KM-20L2): 28.8 µM (inactive) | GI50 (SK-OV-3): 81.7 µM (inactive) | GI50 (Malme-3M): 26.4 µM (inactive) | GI50 (LXFL 529): 12.2 µM (inactive) | GI50 (HOP-18): 16.2 µM (inactive) | GI50 (DLD-1): 14.7 µM (inactive) | GI50 (COLO 205): 14.7 µM (inactive) | GI50 (SF-539): 12.3 µM (inactive) | GI50 (SF-295): 13.4 µM (inactive) | GI50 (RXF 393): 9.46 µM (inactive) | GI50 (SK-MEL-2): 15.1 µM (inactive) | GI50 (SR): 3.2 µM (inactive) | GI50 (NCI-H23): 8.28 µM (inactive) | GI50 (NCI-H226): 13.7 µM (inactive) | GI50 (XF498): 11.6 µM (inactive) | GI50 (SK-MEL-28): 16.4 µM (inactive) | GI50 (K562): 37 µM (inactive) | GI50 (UACC-257): 23.2 µM (inactive) | GI50 (M14): 15.8 µM (inactive) | GI50 (DMS-273): 5.52 µM (inactive) | GI50 (A549): 28.8 µM (inactive) | GI50 (CCRF-CEM): 3.44 µM (inactive) | GI50 (NCI-H522): 7.1 µM (inactive) | GI50 (RPMI-8226): 10.1 µM (inactive) | GI50 (OVCAR-3): 15.1 µM (inactive) | GI50 (EKVX): 18.8 µM (inactive) | GI50 (SNB-78): 12.8 µM (inactive) | GI50 (UO-31): 24.4 µM (inactive) | GI50 (CAKI-1): 43.5 µM (inactive) | GI50 (SK-MEL-5): 13 µM (inactive) | GI50 (KM12): 41.1 µM (inactive) | GI50 (IGROV-1): 18.3 µM (inactive) | GI50 (SNB-19): 27.2 µM (inactive) | GI50 (OVCAR-8): 14.1 µM (inactive)
